Results as given in patent US10882854B2, “Heterocyclic compounds and use thereof” (National Health Research Institutes, priority 2017, dated 2021).

Experiments:
[1] = biological target: T1, human CXCR4 (Homo sapiens, UniProt P61073); assay: Inhibition of 125I-CXCL12 radioligand binding, membranes of human CXCR4-transfected HEK293 cells; settings: 0.16 nM 125I-CXCL12, 60 min at 30 °C, read-out: concentration required to inhibit binding of 125I-CXCL12 to CXCR4 by 50% (IC50)
T1 construct: expressed in transfected cells; host or cells: HEK293 cells (membranes)
Method: Binding competition between the compounds of Formula (I) and human CXCL12 was assessed using a radioligand binding assay as described below.
Membranes (2-4 μg) prepared from human CXCR4-transfected HEK293 cells in 40 μL of assay buffer (50 mM HEPES-NaOH, pH 7.4, 100 mM NaCl, 5 mM MgCl2, 1 mM CaCl2, 0.5% bovine serum albumin) were incubated with 20 μL of radio-labeled ^125I-CXCL12 (0.16 nM) and 20 μL of a test compound in an assay plate (Costar Corning, Cambridge, Mass.). After 60 minutes at 30° C., the incubation was terminated by transferring the resulting reaction mixture to a 96-well GF/B filter plate (Millipore Corp., Billerica, Mass.) and filtered via a manifold. The plate was washed with 100 μL of ice-cold wash buffer (50 mM HEPES-NaOH, pH 7.4, 100 mM NaCl) four times. The radioactivity bound to the filter was measured by Topcount (PerkinElmer Inc., Waltham, Mass.).

[2] = test system: T-cell acute lymphoblastic leukemia (CCRF-CEM) cells; assay: Inhibition of CXCL12-induced chemotaxis in lymphoblastic leukemia cells; format: cell-based; settings: Homo sapiens, CXCL12 10 nM, 2.5 h at 37 °C, read-out: concentration required to inhibit chemotaxis by 50% (EC50)
Method: The response of cancer cells to compounds of Formula (I) was evaluated using the chemotaxis assay as set forth below.
T-cell acute lymphoblastic leukemia (CCRF-CEM) cells in Roswell Park Memorial Institute medium (RPMI) 1640 supplemented with 10% […] were incubated with 250 μL of a test compound. The assay was performed using Millicell Hanging Cell Culture Inserts (pore size 5 μm; 24-well plate; Millipore, Bedford, Mass., USA). After 10 minutes at 37° C., 250 μL of cells pre-incubated with a test compound were plated per well in the upper chambers of the inserts at a density of 2.5×10^5 cells/well. 300 μL/well medium containing CXCL12 (10 nM) and a test compound were plated in the lower chamber of the insert. After 2.5 h at 37° C., cells in both chambers of inserts were measured by flow cytometry (Guava Technologies, Hayward, Calif., USA).

T1 sequence (P61073 whole entry): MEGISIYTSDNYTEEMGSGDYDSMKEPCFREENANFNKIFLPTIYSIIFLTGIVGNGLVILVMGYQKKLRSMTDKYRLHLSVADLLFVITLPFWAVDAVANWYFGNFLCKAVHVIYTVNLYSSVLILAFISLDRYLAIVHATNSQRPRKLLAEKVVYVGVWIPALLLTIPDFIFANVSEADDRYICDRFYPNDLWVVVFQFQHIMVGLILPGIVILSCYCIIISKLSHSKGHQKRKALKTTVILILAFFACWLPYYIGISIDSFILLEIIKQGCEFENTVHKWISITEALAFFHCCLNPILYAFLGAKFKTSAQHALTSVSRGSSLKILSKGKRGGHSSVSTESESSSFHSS

Row | SMILES | IC50 [1] | EC50 [2]
1 | c1ccc2c(NC3CCNCC3)nc(NCc3cc(CCCNCCCNC4CCCCC4)on3)nc2c1 [Compound 1] | < 50 nM | < 50 nM
2 | c1ccc2c(NC3CCNCC3)nc(NCc3coc(CCCNCCCNC4CCCCC4)n3)nc2c1 [Compound 2] | < 50 nM | < 50 nM
3 | c1ccc2c(NC3CCNCC3)nc(NCc3nc(CCCNCCCNC4CCCCC4)cs3)nc2c1 [Compound 3] | < 50 nM | < 50 nM
4 | c1ccc2c(NC3CCNCC3)nc(NCc3nnc(CCCNCCCNC4CCCCC4)o3)nc2c1 [Compound 6] | < 50 nM | < 50 nM
5 | c1ccc2c(NC3CCNCC3)nc(NCc3nnc(CCCNCCCNC4CCCCC4)s3)nc2c1 [Compound 7] | < 50 nM | < 50 nM
6 | c1ccc2c(NC3CCNCC3)nc(NCCc3cn(CCCCNCCCNC4CCCCC4)cn3)nc2c1 [Compound 8] | 50 to 100 nM | < 50 nM
7 | c1ccc2c(NC3CCNCC3)nc(NCc3cc(CCCNCCCNC4CCCCC4)[nH]n3)nc2c1 [Compound 9] | < 50 nM | –
8 | c1ccc2c(NC3CCNCC3)nc(NCc3ncn(CCCNCCCNC4CCCCC4)n3)nc2c1 [Compound 11] | 50 to 100 nM | –
9 | c1ccc2c(NC3CCNCC3)nc(NCc3nnnn3CCCNCCCNC3CCCCC3)nc2c1 [Compound 14] | 50 to 100 nM | < 50 nM
10 | Cc1cc(NC2CCNCC2)nc(NCc2cc(CCCNCCCNC3CCCCC3)on2)n1 [Compound 15] | < 50 nM | < 50 nM
11 | Cc1cc(NC2CCNCC2)nc(NCc2coc(CCCNCCCNC3CCCCC3)n2)n1 [Compound 16] | < 50 nM | < 50 nM
12 | Cc1cc(NC2CCNCC2)nc(NCc2nc(CCCNCCCNC3CCCCC3)cs2)n1 [Compound 17] | < 50 nM | < 50 nM
13 | Cc1cc(NC2CCNCC2)nc(NCc2nc(CCCNCCCNC3CCCCC3)co2)n1 [Compound 18] | < 50 nM | < 50 nM
14 | Cc1cc(NC2CCNCC2)nc(NCc2noc(CCCNCCCNC3CCCCC3)n2)n1 [Compound 19] | < 50 nM | –
15 | Cc1cc(NC2CCNCC2)nc(NCc2nnc(CCCNCCCNC3CCCCC3)o2)n1 [Compound 20] | 50 to 100 nM | < 50 nM
16 | Cc1cc(NC2CCNCC2)nc(NCc2nnc(CCCNCCCNC3CCCCC3)s2)n1 [Compound 21] | < 50 nM | < 50 nM
17 | Cc1cc(NC2CCNCC2)nc(NCCc2cn(CCCCNCCCNC3CCCCC3)cn2)n1 [Compound 22] | 50 to 100 nM | < 50 nM
18 | Cc1cc(NC2CCNCC2)nc(NCc2nnc(CCCNCCCNC3CCCCC3)[nH]2)n1 [Compound 24] | 50 to 100 nM | < 50 nM
19 | CCc1cc(NC2CCNCC2)nc(NCc2nnc(CCCNCCCNC3CCCCC3)s2)n1 [Compound 25] | < 50 nM | –
20 | CCc1cc(NC2CCNCC2)nc(NCc2nnc(CCCNCCCNC3CCCCC3)[nH]2)n1 [Compound 27] | 50 to 100 nM | –
21 | Cc1cc(NC2CCNCC2)nc(NCc2cc(CCCNCCCNC3CCCCC3)[nH]n2)n1 [Compound 28] | < 50 nM | –
22 | Cc1cc(NC2CCNCC2)nc(NCc2ncn(CCCNCCCNC3CCCCC3)n2)n1 [Compound 71] | 100 to 1000 nM | –
23 | C1=NC(CNc2nc(NC3CCNCC3)c3ccccc3n2)=NC1CNCCCNC1CCCCC1 (stereo not drawn) [Compound 72] | 50 to 100 nM | –
24 | Cc1cc(NC2CCNCC2)nc(NCc2nc(CNCCCNC3CCCCC3)c[nH]2)n1 [Compound 73] | 50 to 100 nM | –

The next lines start with the values.

Row | IC50 [1] | EC50 [2] | SMILES
25 | < 50 nM | – | c1ccc2c(N3CCNCC3)nc(NCc3nnn(CCCNCCCNC4CCCCC4)n3)nc2c1 [Compound 12]
26 | < 50 nM | < 50 nM | Cc1cc(NC2CCNCC2)nc(NCc2nnn(CCCNCCCNC3CCCCC3)n2)n1 [Compound 23]
27 | 100 to 1000 nM | – | N[C@@H](CCC(=O)N1CCC(Nc2nc(NCCc3cn(CCCCNCCCNC4CCCCC4)cn3)nc3ccccc23)CC1)C(=O)O [Compound 36]
28 | 50 to 100 nM | – | Cc1cc(NC2CCN(C(=O)CCNCC(=O)O)CC2)nc(NCc2noc(CCCNCCCNC3CCCCC3)n2)n1 [Compound 43]
29 | 100 to 1000 nM | – | Cc1cc(NC2CCN(C(=O)CCNCC(=O)O)CC2)nc(NCc2nnc(CCCNCCCNC3CCCCC3)o2)n1 [Compound 44]
30 | 100 to 1000 nM | – | N[C@@H](CCC(=O)NCCN1CCC(Nc2nc(NCc3nnc(CCCNCCCNC4CCCCC4)o3)nc3ccccc23)CC1)C(=O)NCCP(=O)(O)O [Compound 51]
31 | 100 to 1000 nM | – | N[C@@H](CCC(=O)NCCN1CCC(Nc2nc(NCc3nnnn3CCCNCCCNC3CCCCC3)nc3ccccc23)CC1)C(=O)NCCP(=O)(O)O [Compound 52]
32 | 100 to 1000 nM | – | c1cnc2nc(NCc3nnn(CCCNCCCNC4CCCCC4)n3)nc(NC3CCNCC3)c2c1 [Compound 53]
33 | 100 to 1000 nM | – | O=C(O)[C@@H](O)CCC(=O)N1CCC(Nc2nc(NCc3nc(CCCNCCCNC4CCCCC4)co3)nc3ccccc23)CC1 [Compound 54]
34 | 100 to 1000 nM | – | c1nc2c(NCc3nnn(CCCNCCCNC4CCCCC4)n3)nc(N3CCNCC3)nc2[nH]1 [Compound 55]
35 | 100 to 1000 nM | – | c1cc2c(NC3CCNCC3)nc(NCc3nnn(CCCNCCCNC4CCCCC4)n3)nc2s1 [Compound 56]
36 | 100 to 1000 nM | – | Nc1cc(N2CCNCC2)nc(NCc2nnn(CCCNCCCNC3CCCCC3)n2)n1 [Compound 57]
37 | 50 to 100 nM | – | c1cc(NC2CCNCC2)nc(NCc2nnn(CCCNCCCNC3CCCCC3)n2)n1 [Compound 58]
38 | 100 to 1000 nM | – | N[C@@H](CCC(=O)N1CCC(Nc2nc(NCCc3cn(CCCCNCCCNC4CCCCC4)cn3)nc3ccccc23)CC1)C(=O)OCc1ccccc1 [Compound 60]
39 | 100 to 1000 nM | – | CCc1cc(NC2CCN(C(=O)CCNCC(=O)O)CC2)nc(NCc2nnn(CCCNCCCNC3CCCCC3)n2)n1 [Compound 63]
40 | 100 to 1000 nM | – | CCc1cc(NC2CCN(C(=O)CCCNCC(=O)O)CC2)nc(NCc2nnn(CCCNCCCNC3CCCCC3)n2)n1 [Compound 64]
41 | 100 to 1000 nM | – | CCc1cc(NC2CCN(C(=O)CC[C@H](N)C(=O)O)CC2)nc(NCc2nnn(CCCNCCCNC3CCCCC3)n2)n1 [Compound 65]
42 | 50 to 100 nM | – | CCc1cc(NC2CCN(C(=O)CC[C@H](N)C(=O)O)CC2)nc(NCc2nnc(CCCNCCCNC3CCCCC3)[nH]2)n1 [Compound 66]

Row | IC50 [1] | EC50 [2] | SMILES
43 | 100 to 1000 nM | – | N[C@@H](CCC(=O)N1CCC(Nc2nc(NCc3nnnn3CCCNCCCNC3CCCCC3)nc3ccccc23)CC1)C(=O)O [Compound 67]
44 | 100 to 1000 nM | – | O=C(O)CNCCC(=O)N1CCC(Nc2nc(NCc3nnnn3CCCNCCCNC3CCCCC3)nc3ccccc23)CC1 [Compound 68]
45 | 100 to 1000 nM | – | CCc1cc(NC2CCN(C(=O)CC[C@H](N)C(=O)O)CC2)nc(NCc2nnc(CCCNCCCNC3CCCCC3)s2)n1 [Compound 69]
46 | 100 to 1000 nM | – | CCc1cc(NC2CCN(C(=O)CCNCC(=O)O)CC2)nc(NCc2nnc(CCCNCCCNC3CCCCC3)s2)n1 [Compound 70]
47 | 100 to 1000 nM | – | FC(F)(F)c1cnc(NCc2nnn(CCCNCCCNC3CCCCC3)n2)nc1NC1CCNCC1 [Compound 74]
48 | < 50 nM | – | Cc1cnc(NCc2nnn(CCCNCCCNC3CCCCC3)n2)nc1NC1CCNCC1 [Compound 75]
49 | 50 to 100 nM | – | N[C@@H](CCC(=O)N1CCC(Nc2nc(NCc3cc(CCCNCCCNC4CCCCC4)n[nH]3)nc3ccccc23)CC1)C(=O)O [Compound 76]
50 | 100 to 1000 nM | – | N[C@@H](CCC(=O)N1CCC(Nc2nc(NCc3ncn(CCCNCCCNC4CCCCC4)n3)nc3ccccc23)CC1)C(=O)O [Compound 77]
51 | 50 to 100 nM | – | O=C(O)[C@H]1CCCN1CCC(=O)N1CCC(Nc2nc(NCc3nnn(CCCNCCCNC4CCCCC4)n3)nc3ccccc23)CC1 [Compound 78]
52 | 100 to 1000 nM | – | N[C@@H](CCC(=O)N1CCC(Nc2nc(NCc3nc(CNCCCNC4CCCCC4)c[nH]3)nc3ccccc23)CC1)C(=O)O [Compound 79]
53 | 100 to 1000 nM | – | CC(C)CC(NCCC(=O)N1CCC(Nc2nc(NCc3nnn(CCCNCCCNC4CCCCC4)n3)nc3ccccc23)CC1)C(=O)O (stereo not drawn) [Compound 80]
54 | 100 to 1000 nM | – | Cc1cc(NC2CCN(C(=O)CCNCC(=O)O)CC2)nc(NCc2ncn(CCCNCCCNC3CCCCC3)n2)n1 [Compound 81]
55 | 50 to 100 nM | – | CCOC(=O)CNCCC(=O)N1CCC(Nc2cc(C)nc(NCc3cc(CCCNCCCNC4CCCCC4)n[nH]3)n2)CC1 [Compound 82]
56 | 100 to 1000 nM | – | Cc1cc(NC2CCN(C(=O)CCNCC(=O)O)CC2)nc(NCc2nc(CNCCCNC3CCCCC3)c[nH]2)n1 [Compound 83]
57 | 100 to 1000 nM | – | N[C@@H](CCC(=O)NCCN1CCC(Nc2nc(NCc3nc(CNCCCNC4CCCCC4)cs3)nc3ccccc23)CC1)C(=O)NCCP(=O)(O)O [Compound 84]
58 | 100 to 1000 nM | – | Cc1cnc(NCc2nnn(CCCNCCCNC3CCCCC3)n2)nc1NC1CCN(C(=O)CCNCC(=O)O)CC1 [Compound 85]
59 | 100 to 1000 nM | – | Cc1cnc(NCc2nnn(CCCNCCCNC3CCCCC3)n2)nc1NC1CCN(C(=O)CC[C@H](N)C(=O)O)CC1 [Compound 86]
